# Data reported in US20230255987A1, “AQUEOUS PHARMACEUTICAL COMPOSITION COMPRISING A P2Y12 RECEPTOR ANTAGONIST” (Idorsia Pharmaceuticals Ltd, priority 2020, published 2023).
# Key:
# [1] = pH shift of unbuffered, pH-adjusted aqueous solution of COMPOUND on storage; assay type: physicochemical; details: initial pH 9.0, 2 days at 70° C.
# [2] = Stability of COMPOUND in aqueous solution at different pH values in the absence of a buffer (HPLC); assay type: physicochemical
# Protocol: For instance, a solution of COMPOUND (32 mg/mL) in water at pH 7 (adjusted with aqueous NaOH solution) contained only 33.5% COMPOUND, but 65.2% (R)-2-(6-((S)-3-methoxypyrrolidin-1-yl)-2-phenylpyrimidine-4-carboxamido)-3-phosphonopropanoic acid (hereinafter DEGRADATION COMPOUND) if stored at 60° C. for 1 week (98.6% COMPOUND at t=0, i.e. immediately after preparation of the solution). The amount of DEGRADATION COMPOUND dropped to 24.4% and 10.0% for corresponding aqueous solutions stored under the same conditions but adjusted to pH 8.0 and 9.0, respectively.
# (§1) Sample Preparation for High Performance Liquid Chromatography and Method Used • 20 μL of the respective aqueous pharmaceutical composition was filled into a HPLC vial. • 980 μL water was added (dilution factor 50) prior HPLC analysis. • HPLC-UV method used: • HPLC system: High pressure mixing Shimadzu Nexera X2 • Flow: 1.5 mL/min • Column temperature: 50° C. • Autosampler temperature: 25° C. • Injection volume: 1 μL • Column: Phenomenex Gemini 5.0 μm 110 Å, 50×2.0 mm (n° 184) • Wavelength: DAD+250 nm • Solvent A: tris(hydroxymethyl)aminomethane buffer 50 mM pH 9 (adjusted with HCl)+5% (v/v) acetonitrile • Solvent B: Acetonitrile+5% (v/v) tris(hydroxymethyl)aminomethane buffer 50 mM pH 9 (adjusted with HCl) • Gradient: […]
# Aqueous formulations containing 32 mg/mL (52 mM) COMPOUND were titrated to pH 7.0, 8.0, and 9.0 using aqueous 1N NaOH solution.
# The different formulations were filled into 1 mL sterile, pre-fillable glass syringes after sterile filtration. Samples were analyzed at t=0 and after 1-week storage at 60° C.
# [3] = Stability of COMPOUND in aqueous solution at pH 9.0 with boric acid buffer at different buffer concentrations, 75° C.; assay type: physicochemical
# Protocol: as §1
# Stability of COMPOUND in aqueous solution at pH 9.0 in the presence of boric acid buffer at different buffer concentrations
# Formulation compositions assessing the impact of buffer capacity on formulation stability
# platelet aggregation = details: 15 minutes after subcutaneous administration, doses of 8 mg, 16 mg and 32 mg; cited from earlier work
# [4] = Long-term stability of COMPOUND in 60 mM arginine buffer under different storage conditions (UPLC); assay type: physicochemical
# Protocol: In a 10 L glass reactor, L-arginine (104 g, 0.60 mol) was added under stirring to water for injection (7.01 kg). COMPOUND hydrochloride (339 g, 0.52 mol) was added portion wise to the solution and the pH value was adjusted to pH=9.0 by addition of 1.0 M aqueous NaOH solution (1.18 kg). Water for injection was added to a total weight of the solution of 10.15 kg.
# For stability testing the test samples were prepared by filling 0.54 mL of the above solution into prefillable 1 mL glass syringes with stacked in needle and stored under the conditions given in table 14 and 15. The samples were analysed after the given timepoints by ultra-performance liquid chromatography (UPLC) using the following conditions: • Equipment: • UPLC system, with data acquisition system and UV detection
# Mobile phase A: Weigh 3.08 g of ammonium acetate and 3.26 g of ammonium hexafluorophosphate in a 2 L bottle. Dissolve in 1900 mL H2O. Add 100 mL of acetonitrile.
# Mobile phase B: Weigh 0.77 g of ammonium acetate in a 1 L bottle. Dissolve in 50 mL H2O. Add 950 mL of acetonitrile.
# Diluent: Mix 920 mL of Mobile Phase A with 80 mL Mobile phase B.
# Reference standard solution: 0.32 mg/mL of COMPOUND reference standard in diluent.
# Sample solution: The samples were diluted to 0.32 mg/mL of COMPOUND (based on amount of COMPOUND in the initial solution) with diluent
# Column: 100 mm×3.0 mm, 3 μm C18 column (e.g. YMC Triart C18 ExRS)
# Detection wavelength: 246 nm
# platelet = details: patients with AMI, cited from earlier work
# [5] = rat, at equivalent antithrombotic efficacy, versus ticagrelor; cited from earlier work
smiles,measurement,setting,value
"CCCCOC(=O)N1CCN(C(=O)[C@H](CP(=O)(O)O)NC(=O)c2cc(N3CC[C@H](OC)C3)nc(-c3ccccc3)n2)CC1 [COMPOUND, 4-((R)-2-{[6-((S)-3-methoxy-pyrrolidin-1-yl)-2-phenyl-pyrimidine-4-carbonyl]-amino}-3-phosphono-propionyl)-piperazine-1-carboxylic acid butyl ester]",pH value after storage,[1],8.5
same,Content of COMPOUND,"[2]; 32 mg/mL in water, pH 7 (NaOH), 60° C. for 1 week",33.5%
same,Content of COMPOUND,"[2]; 32 mg/mL in water, pH 7 (NaOH), t=0",98.6%
same,Content of COMPOUND,"[2]; no buffer, pH 7.0, t = 0",98.55 Area %
same,Content of COMPOUND,"[2]; no buffer, pH 7.0, t = 1 week at 60° C.",33.5 Area %
same,Content of COMPOUND,"[2]; no buffer, pH 8.0, t = 0",98.65 Area %
same,Content of COMPOUND,"[2]; no buffer, pH 8.0, t = 1 week at 60° C.",74.7 Area %
same,Content of COMPOUND,"[2]; no buffer, pH 9.0, t = 0",98.60 Area %
same,Content of COMPOUND,"[2]; no buffer, pH 9.0, t = 1 week at 60° C.",88.7 Area %
same,Content of COMPOUND,"[3]; 0 mM B(OH)3, pH 9.0, 75° C., 0 h",100.00 Area %
same,Content of COMPOUND,"[3]; 0 mM B(OH)3, pH 9.0, 75° C., 24 h",96.16 Area %
same,Content of COMPOUND,"[3]; 0 mM B(OH)3, pH 9.0, 75° C., 48 h",89.46 Area %
same,Content of COMPOUND,"[3]; 0 mM B(OH)3, pH 9.0, 75° C., 120 h",64.89 Area %
same,Content of COMPOUND,"[3]; 0 mM B(OH)3, pH 9.0, 75° C., 168 h",49.45 Area %
same,Content of COMPOUND,"[3]; 20 mM B(OH)3, pH 9.0, 75° C., 0 h",100.00 Area %
same,Content of COMPOUND,"[3]; 20 mM B(OH)3, pH 9.0, 75° C., 24 h",94.61 Area %
same,Content of COMPOUND,"[3]; 20 mM B(OH)3, pH 9.0, 75° C., 48 h",90.72 Area %
same,Content of COMPOUND,"[3]; 20 mM B(OH)3, pH 9.0, 75° C., 120 h",74.84 Area %
same,Content of COMPOUND,"[3]; 20 mM B(OH)3, pH 9.0, 75° C., 168 h",62.18 Area %
same,Content of COMPOUND,"[3]; 60 mM B(OH)3, pH 9.0, 75° C., 0 h",100.00 Area %
same,Content of COMPOUND,"[3]; 60 mM B(OH)3, pH 9.0, 75° C., 24 h",96.60 Area %
same,Content of COMPOUND,"[3]; 60 mM B(OH)3, pH 9.0, 75° C., 48 h",90.21 Area %
same,Content of COMPOUND,"[3]; 60 mM B(OH)3, pH 9.0, 75° C., 120 h",78.47 Area %
same,Content of COMPOUND,"[3]; 60 mM B(OH)3, pH 9.0, 75° C., 168 h",68.96 Area %
same,Content of COMPOUND,"[3]; 100 mM B(OH)3, pH 9.0, 75° C., 0 h",100.00 Area %
same,Content of COMPOUND,"[3]; 100 mM B(OH)3, pH 9.0, 75° C., 24 h",97.89 Area %
same,Content of COMPOUND,"[3]; 100 mM B(OH)3, pH 9.0, 75° C., 48 h",93.78 Area %
same,Content of COMPOUND,"[3]; 100 mM B(OH)3, pH 9.0, 75° C., 120 h",77.85 Area %
same,Content of COMPOUND,"[3]; 100 mM B(OH)3, pH 9.0, 75° C., 168 h",71.33 Area %
same,inhibition of platelet aggregation,platelet aggregation,more than 85%
same,Amount of COMPOUND in the test samples,"[4]; 5° C., 1 month",16.9 mg
same,Amount of COMPOUND in the test samples,"[4]; 5° C., 3 months",16.8 mg
same,Amount of COMPOUND in the test samples,"[4]; 5° C., 6 months",16.6 mg
same,Amount of COMPOUND in the test samples,"[4]; 5° C., initial",16.9 mg
same,Amount of COMPOUND in the test samples,"[4]; 25° C./60% RH, 1 month",16.8 mg
same,Amount of COMPOUND in the test samples,"[4]; 25° C./60% RH, 3 months",16.4 mg
same,Amount of COMPOUND in the test samples,"[4]; 25° C./60% RH, 6 months",16.2 mg
same,Amount of COMPOUND in the test samples,"[4]; 25° C./60% RH, 12 months",15.9 mg
same,Amount of COMPOUND in the test samples,"[4]; 25° C./60% RH, initial",16.9 mg
same,Amount of COMPOUND in the test samples,"[4]; 30° C./75% RH, 1 month",16.7 mg
same,Amount of COMPOUND in the test samples,"[4]; 30° C./75% RH, 3 months",16.2 mg
same,Amount of COMPOUND in the test samples,"[4]; 30° C./75% RH, 6 months",15.9 mg
same,Amount of COMPOUND in the test samples,"[4]; 30° C./75% RH, 12 months",15.2 mg
same,Amount of COMPOUND in the test samples,"[4]; 30° C./75% RH, initial",16.9 mg
same,Amount of COMPOUND in the test samples,"[4]; 40° C./75% RH, 1 month",16.2 mg
same,Amount of COMPOUND in the test samples,"[4]; 40° C./75% RH, 3 months",15.1 mg
same,Amount of COMPOUND in the test samples,"[4]; 40° C./75% RH, 6 months",13.3 mg
same,Amount of COMPOUND in the test samples,"[4]; 40° C./75% RH, initial",16.9 mg
same,antiplatelet response,platelet; single-dose subcutaneous,"profound, rapid, and dose-related antiplatelet response"
same,safety of single-dose subcutaneous administration,platelet,safe
same,blood loss,[5],significantly less blood loss than ticagrelor
